Assay [1] addresses Serine/threonine-protein kinase 26 (Homo sapiens, UniProt Q9P289). Nature of the assay: Selectivity interaction (KinomeScan (DiscoverX)) EUB0000595a STK26. Particulars: at 10 µM.
The target of assay [2] is LIM domain kinase 1 (Homo sapiens) (UniProt P53667). Nature of the assay: Selectivity interaction (KinomeScan (DiscoverX)) EUB0001619a LIMK1. Particulars: at 1 µM.
Assay [3] deals with Receptor-type tyrosine-protein kinase FLT3 (Homo sapiens), P36888 [UNDEFINED MUTATION]. Nature of the assay: Selectivity interaction (KinomeScan (DiscoverX)) EUB0000695a FLT3. Particulars: at 100 nM.
Assay [4] concerns the target T1, MAP kinase-activated protein kinase 5 (Homo sapiens) (UniProt Q8IW41).
T1 sequence (whole entry): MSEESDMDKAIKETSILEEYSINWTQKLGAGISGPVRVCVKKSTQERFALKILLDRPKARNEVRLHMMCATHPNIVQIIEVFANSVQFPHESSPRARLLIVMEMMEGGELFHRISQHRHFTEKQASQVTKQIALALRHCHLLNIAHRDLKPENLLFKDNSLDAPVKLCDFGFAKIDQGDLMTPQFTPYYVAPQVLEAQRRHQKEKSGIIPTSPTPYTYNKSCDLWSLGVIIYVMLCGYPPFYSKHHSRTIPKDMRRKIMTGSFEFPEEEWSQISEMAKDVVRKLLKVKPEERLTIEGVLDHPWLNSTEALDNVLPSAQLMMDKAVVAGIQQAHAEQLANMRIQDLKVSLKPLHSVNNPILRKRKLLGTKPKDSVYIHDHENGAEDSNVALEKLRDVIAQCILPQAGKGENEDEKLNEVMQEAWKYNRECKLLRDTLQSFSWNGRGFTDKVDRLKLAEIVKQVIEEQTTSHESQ
The experiment in a line: Selectivity interaction (KinomeScan (DiscoverX)) EUB0000695a MAPKAPK5. Particulars: at 100 nM.

Assay [5] has as its target T2, Serine/threonine-protein kinase 3 (Homo sapiens) (UniProt Q13188).
T2 sequence (whole entry): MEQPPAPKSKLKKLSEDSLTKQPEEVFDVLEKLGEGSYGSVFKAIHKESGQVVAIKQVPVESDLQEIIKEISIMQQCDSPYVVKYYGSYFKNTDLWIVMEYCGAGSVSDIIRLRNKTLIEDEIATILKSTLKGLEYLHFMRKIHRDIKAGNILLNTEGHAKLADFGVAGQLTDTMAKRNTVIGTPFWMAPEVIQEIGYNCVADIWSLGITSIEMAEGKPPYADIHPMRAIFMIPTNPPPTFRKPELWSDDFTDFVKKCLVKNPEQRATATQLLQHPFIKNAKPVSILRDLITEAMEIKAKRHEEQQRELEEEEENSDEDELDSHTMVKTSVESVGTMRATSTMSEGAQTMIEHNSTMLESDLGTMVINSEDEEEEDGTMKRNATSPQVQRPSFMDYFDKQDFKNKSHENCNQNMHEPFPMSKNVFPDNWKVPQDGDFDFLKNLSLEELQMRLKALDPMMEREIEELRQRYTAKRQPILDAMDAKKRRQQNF
The experiment in a line: Selectivity interaction (KinomeScan (DiscoverX)) EUB0000666a STK3. Particulars: at 10 µM.

Assay [6] addresses Insulin-like growth factor 1 receptor (Homo sapiens, UniProt P08069). Particulars: at 3 µM.
The target of assay [7] is Tyrosine-protein kinase BTK (Homo sapiens, UniProt Q06187). Nature of the assay: Selectivity interaction (KinomeScan (DiscoverX)) EUB0000655a BTK. Particulars: at 10 µM.
For assay [8], the target named is T3, Mitogen-activated protein kinase kinase kinase 12 (Homo sapiens) (UniProt Q12852).
T3 sequence (whole entry): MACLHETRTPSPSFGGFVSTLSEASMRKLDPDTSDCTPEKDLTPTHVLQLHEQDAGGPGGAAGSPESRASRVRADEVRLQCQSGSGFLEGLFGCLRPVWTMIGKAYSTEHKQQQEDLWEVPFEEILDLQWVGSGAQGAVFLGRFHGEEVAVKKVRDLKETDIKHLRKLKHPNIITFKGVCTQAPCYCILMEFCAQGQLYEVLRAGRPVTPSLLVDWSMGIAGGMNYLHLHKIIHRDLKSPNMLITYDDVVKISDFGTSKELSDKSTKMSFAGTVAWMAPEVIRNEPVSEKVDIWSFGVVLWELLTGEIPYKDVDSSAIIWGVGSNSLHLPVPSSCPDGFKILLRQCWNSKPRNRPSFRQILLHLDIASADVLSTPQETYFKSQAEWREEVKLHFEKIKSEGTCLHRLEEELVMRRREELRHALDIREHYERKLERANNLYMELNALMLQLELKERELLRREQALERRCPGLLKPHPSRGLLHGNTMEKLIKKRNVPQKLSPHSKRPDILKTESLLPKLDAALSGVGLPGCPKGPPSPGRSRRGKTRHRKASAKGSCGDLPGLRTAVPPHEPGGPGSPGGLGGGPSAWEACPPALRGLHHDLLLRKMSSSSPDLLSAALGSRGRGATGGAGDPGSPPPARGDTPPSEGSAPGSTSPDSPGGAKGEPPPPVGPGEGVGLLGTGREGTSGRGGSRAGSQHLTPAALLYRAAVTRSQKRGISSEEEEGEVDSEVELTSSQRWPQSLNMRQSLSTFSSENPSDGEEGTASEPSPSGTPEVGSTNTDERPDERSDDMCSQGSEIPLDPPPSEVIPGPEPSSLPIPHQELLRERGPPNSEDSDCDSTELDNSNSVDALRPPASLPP
The experiment in a line: Selectivity interaction (KinomeScan (DiscoverX)) EUB0000092b MAP3K12. Particulars: at 10 µM.

The target of assay [9] is T4, Membrane-associated tyrosine- and threonine-specific cdc2-inhibitory kinase (Homo sapiens) (UniProt Q99640).
T4 sequence (whole entry): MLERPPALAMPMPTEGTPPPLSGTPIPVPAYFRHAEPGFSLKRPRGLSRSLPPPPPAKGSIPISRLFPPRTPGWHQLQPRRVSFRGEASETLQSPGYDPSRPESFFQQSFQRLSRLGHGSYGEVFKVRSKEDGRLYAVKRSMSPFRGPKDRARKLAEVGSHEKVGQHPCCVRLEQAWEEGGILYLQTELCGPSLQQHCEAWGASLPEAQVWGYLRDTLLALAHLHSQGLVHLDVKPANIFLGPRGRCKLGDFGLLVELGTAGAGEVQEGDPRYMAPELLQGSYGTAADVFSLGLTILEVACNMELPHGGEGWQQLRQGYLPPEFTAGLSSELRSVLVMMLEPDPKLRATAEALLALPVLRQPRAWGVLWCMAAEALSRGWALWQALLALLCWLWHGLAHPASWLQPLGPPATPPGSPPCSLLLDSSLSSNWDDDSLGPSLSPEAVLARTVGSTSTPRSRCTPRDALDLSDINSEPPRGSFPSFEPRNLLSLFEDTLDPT
Nature of the assay: Selectivity interaction (KinomeScan (DiscoverX)) EUB0001079a PKMYT1. Particulars: at 1 µM.

Assay [10] concerns Hepatocyte growth factor receptor (Homo sapiens), P08581 [Y1235D]. The experiment in a line: (§1) Selectivity interaction (KinomeScan (DiscoverX)) EUB0001079a MET. Particulars: at 1 µM.
Sequence of Hepatocyte growth factor receptor (Homo sapiens), P08581 [Y1235D] (P08581 whole entry Y1235D): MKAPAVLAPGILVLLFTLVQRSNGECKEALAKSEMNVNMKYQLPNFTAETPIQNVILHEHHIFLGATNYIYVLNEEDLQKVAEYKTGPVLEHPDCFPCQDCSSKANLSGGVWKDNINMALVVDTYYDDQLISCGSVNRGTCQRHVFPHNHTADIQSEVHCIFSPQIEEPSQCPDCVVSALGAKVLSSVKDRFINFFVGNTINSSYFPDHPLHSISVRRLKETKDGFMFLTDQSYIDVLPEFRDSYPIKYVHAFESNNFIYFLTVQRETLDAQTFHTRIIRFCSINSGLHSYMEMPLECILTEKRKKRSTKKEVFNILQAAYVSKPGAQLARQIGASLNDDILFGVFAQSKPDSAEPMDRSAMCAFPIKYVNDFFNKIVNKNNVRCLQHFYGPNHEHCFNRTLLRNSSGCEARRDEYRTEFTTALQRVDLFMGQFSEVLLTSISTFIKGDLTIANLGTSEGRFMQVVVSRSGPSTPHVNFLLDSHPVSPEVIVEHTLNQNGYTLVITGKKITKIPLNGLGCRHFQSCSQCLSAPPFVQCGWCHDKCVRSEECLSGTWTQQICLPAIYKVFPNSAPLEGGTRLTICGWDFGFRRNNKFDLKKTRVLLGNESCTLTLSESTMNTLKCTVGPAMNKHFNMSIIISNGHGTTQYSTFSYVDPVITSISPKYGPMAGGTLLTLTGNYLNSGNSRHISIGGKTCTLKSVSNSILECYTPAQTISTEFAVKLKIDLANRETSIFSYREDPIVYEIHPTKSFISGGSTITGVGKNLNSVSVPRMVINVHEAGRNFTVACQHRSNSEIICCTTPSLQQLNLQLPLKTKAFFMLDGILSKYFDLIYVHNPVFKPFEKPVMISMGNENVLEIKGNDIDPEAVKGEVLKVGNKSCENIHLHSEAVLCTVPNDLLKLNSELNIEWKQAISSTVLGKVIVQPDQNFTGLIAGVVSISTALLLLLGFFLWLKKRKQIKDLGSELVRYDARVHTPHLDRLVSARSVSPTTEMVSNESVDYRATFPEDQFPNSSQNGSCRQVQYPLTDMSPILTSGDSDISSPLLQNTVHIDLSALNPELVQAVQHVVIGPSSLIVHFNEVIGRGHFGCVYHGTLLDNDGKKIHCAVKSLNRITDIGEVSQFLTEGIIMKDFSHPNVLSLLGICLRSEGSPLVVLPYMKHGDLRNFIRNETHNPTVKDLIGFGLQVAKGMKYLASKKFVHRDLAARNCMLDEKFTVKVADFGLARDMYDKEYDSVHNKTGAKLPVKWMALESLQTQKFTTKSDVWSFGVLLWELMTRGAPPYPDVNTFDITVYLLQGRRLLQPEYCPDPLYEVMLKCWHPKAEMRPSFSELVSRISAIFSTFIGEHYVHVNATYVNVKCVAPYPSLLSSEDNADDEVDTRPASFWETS
Assay [11] concerns the target Hepatocyte growth factor receptor (Homo sapiens, UniProt P08581). The description is as §1. Particulars: at 1 µM.
Assay [12] concerns Hepatocyte growth factor receptor (Homo sapiens), P08581 [M1250T]. Described as §1. Particulars: at 1 µM.

The source of these data is ChEMBL document CHEMBL5465560, “Selectivity Literature for EUbOPEN Chemogenomic Library” (2024).

Sequence of Hepatocyte growth factor receptor (P08581 whole entry): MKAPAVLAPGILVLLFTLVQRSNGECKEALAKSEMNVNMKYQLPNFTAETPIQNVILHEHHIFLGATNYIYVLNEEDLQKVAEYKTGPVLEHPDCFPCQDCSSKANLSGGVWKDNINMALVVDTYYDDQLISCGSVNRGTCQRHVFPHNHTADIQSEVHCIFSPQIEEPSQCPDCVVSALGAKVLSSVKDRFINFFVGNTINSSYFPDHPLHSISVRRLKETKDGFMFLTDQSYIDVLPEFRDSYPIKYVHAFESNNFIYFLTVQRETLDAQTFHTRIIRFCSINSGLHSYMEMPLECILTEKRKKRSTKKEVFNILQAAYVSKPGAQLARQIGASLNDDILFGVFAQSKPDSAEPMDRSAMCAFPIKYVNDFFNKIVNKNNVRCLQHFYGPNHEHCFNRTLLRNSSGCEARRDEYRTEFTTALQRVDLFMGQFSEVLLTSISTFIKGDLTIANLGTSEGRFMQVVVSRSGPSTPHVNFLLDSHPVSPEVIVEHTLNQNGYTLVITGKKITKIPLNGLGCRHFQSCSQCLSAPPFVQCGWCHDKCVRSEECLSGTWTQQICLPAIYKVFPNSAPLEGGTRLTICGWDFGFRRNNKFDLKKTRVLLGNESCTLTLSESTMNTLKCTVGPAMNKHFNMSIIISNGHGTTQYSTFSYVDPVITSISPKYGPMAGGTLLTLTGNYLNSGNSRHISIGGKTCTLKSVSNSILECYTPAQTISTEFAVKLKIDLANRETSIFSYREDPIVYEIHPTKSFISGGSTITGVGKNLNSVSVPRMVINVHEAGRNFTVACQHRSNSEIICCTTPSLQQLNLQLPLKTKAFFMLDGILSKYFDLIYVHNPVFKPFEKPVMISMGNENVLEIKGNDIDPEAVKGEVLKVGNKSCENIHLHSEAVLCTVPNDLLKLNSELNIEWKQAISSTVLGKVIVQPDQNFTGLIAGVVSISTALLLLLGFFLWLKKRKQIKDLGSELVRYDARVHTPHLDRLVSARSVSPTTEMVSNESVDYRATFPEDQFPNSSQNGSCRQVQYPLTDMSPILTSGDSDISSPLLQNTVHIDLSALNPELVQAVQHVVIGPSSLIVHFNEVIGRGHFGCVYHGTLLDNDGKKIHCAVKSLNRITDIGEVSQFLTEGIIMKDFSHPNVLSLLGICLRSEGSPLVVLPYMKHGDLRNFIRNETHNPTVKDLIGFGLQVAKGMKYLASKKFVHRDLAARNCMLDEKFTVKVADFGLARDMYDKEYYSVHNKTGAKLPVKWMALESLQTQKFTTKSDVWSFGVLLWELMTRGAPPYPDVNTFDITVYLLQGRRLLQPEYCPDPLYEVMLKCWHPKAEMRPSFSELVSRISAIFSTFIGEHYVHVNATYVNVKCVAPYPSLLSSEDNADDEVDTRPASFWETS
Sequence of Insulin-like growth factor 1 receptor (P08069 31-736 limits assumed): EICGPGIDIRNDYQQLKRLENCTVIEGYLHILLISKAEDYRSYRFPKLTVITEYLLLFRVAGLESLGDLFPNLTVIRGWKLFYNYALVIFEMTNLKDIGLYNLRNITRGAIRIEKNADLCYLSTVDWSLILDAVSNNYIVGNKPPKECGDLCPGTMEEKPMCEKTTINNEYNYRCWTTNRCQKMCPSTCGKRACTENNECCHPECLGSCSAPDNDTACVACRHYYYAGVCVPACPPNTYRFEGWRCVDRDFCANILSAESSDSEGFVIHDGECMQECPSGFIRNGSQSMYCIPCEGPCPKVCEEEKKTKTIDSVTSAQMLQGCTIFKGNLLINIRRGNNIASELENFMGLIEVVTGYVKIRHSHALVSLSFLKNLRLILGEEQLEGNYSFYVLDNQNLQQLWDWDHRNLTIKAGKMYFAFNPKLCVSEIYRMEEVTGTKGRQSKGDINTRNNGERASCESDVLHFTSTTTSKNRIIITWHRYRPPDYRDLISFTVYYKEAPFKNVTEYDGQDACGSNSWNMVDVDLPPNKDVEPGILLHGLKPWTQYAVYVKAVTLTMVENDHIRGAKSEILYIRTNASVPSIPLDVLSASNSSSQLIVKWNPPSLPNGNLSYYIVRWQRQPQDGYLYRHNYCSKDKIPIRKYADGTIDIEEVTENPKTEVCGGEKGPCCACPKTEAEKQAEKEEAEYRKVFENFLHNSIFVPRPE
Sequence of Insulin-like growth factor 1 receptor (P08069 741-1367 limits assumed): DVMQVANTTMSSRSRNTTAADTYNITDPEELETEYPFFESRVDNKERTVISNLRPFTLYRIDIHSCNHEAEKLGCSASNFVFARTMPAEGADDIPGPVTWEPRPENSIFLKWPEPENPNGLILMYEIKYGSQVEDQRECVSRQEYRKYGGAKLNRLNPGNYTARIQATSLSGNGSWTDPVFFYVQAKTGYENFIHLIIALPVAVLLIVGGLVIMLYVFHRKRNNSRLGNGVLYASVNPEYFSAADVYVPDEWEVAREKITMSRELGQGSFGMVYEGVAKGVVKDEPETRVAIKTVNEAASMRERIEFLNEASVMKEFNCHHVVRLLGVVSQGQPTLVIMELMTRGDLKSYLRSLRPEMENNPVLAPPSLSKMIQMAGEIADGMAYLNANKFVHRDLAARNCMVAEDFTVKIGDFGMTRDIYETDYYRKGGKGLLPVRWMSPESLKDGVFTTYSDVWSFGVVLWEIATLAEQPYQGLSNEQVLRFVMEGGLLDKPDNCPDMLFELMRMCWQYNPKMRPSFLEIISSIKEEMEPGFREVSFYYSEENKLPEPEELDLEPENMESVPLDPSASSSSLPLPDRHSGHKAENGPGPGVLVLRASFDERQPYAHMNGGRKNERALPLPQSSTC
Sequence of LIM domain kinase 1 (Homo sapiens) (P53667 whole entry, looked up, the tested form may be a part): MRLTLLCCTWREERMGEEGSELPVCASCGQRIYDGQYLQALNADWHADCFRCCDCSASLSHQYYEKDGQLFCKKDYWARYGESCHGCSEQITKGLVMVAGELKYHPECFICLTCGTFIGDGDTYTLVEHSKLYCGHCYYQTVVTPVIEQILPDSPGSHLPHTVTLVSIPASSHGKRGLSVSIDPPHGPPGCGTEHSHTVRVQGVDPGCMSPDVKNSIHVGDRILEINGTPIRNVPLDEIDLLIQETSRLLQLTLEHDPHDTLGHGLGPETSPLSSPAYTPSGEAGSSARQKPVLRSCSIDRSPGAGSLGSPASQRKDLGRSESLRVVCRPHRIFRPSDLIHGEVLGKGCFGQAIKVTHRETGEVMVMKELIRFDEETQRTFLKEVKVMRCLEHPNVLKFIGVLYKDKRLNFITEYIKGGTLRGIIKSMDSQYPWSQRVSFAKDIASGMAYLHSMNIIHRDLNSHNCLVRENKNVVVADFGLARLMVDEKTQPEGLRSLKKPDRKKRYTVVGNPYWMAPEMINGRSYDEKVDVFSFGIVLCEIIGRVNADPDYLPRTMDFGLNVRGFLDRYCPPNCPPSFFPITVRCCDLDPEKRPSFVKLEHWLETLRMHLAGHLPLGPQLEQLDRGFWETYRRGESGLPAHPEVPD

Compound `COCC(=O)NC/C=C/c1ccc2ncnc(Nc3ccc(Oc4ccc(C)nc4)c(C)c3)c2c1` [CP-724714] had a % of control in assay [1] of 90%. Take `N#Cc1cccc(-c2c[nH]c3ncnc(N4CCOCC4)c23)c1`: in [2], the % of control came to 93%. In the case of `Cc1cc(F)c(C(=O)Nc2cccc(-c3nncn3C(C)C)n2)cc1-n1cnc(C2CC2)c1`, the % of control in assay [3] and in [4] was 76% in each case. Compound `O=C(NOC[C@H](O)CO)c1ccc(F)c(F)c1Nc1ccc(I)cc1F` came in with a % of control in assay [5] of 90%. On to `CCc1cc(Nc2nccc(-c3c(-c4ccc(OC)c(C(=O)Nc5c(F)cccc5F)c4)nc4ccccn34)n2)c(OC)cc1N1CCC(N2CCN(S(C)(=O)=O)CC2)CC1`, for which, in assay [6], the % of inhibition turned out to be 100%. In assay [7], `CN(C)CCOc1ccc(-c2nc(-c3ccncc3)c(-c3ccc4c(c3)CC/C4=N\O)[nH]2)cc1` displayed a % of control of 92%. In the case of `CCC(=O)N1CCN(c2ccc(-n3c(=O)ccc4cnc5ccc(-c6cnc7ccccc7c6)cc5c43)cc2C(F)(F)F)CC1`, the % of control in [8] stood at 100%.

`Nc1cnc(N2CCc3cc(S(=O)(=O)Nc4c(F)cc(Cl)cc4F)cc(N4CCCC4=O)c32)nc1` [TP-020n]: the % of control in [9] stood at 99%; in assay [10] it was 69%; in assay [11] it was 69%; in assay [12], 100%.
